Here are results for six molecules from patent publication US20090012069A1, “Novel Antidiabetic Compounds” (priority 2004, published 2009).

The subject of assay [1] is Hamster of Syrian golden stain. In words: Serum triglyceride lowering activity in HF-HC diet fed Hamster of Syrian golden stain. Conditions: HF-HC diet hamsters, 3 mg/kg/day oral gavage, non-fasted serum on day 14, 1 hr after dose. It is filed as in vivo. An excerpt:
ii) Serum triglyceride and total cholesterol lowering activity in Hamster of Syrian golden stain:
Male and Female Hamster of Syrian golden stain were bred in Zydus animal house. All these animals were maintained under 12-hour light and dark cycle at 22±3 degree C. The protocol approved by Institutional Animal Ethics Committee is being used. Animals of 3-12 weeks age (80-150 gm body weight) were taken for study. Near the end of the acclimatization period, animals judged to be suitable for testing will bee weighed. […] Other animals were put on HF-HC (High fat and high cholesterol) diet for 14 days.
Each animal received a single dose of ZY compounds at 0.001 to 50 mg/kg/ as a carbomethoxy cellulose or polyethylene glycol in the evening administered as an oral gavage daily for 15 days. On day 14, after 1 hr of dose administration, non-fasted blood samples were collected in non heparinized capillary from animals for determination of total cholesterol (TC), triglyceride (TG) (Wieland, O. Methods of Enzymatic analysis. Bergermeyer, H., O., Ed., 1963. 211-214; Trinder, P. Ann. Clin. Biochem. 1969. 6: 24-27). Measurement of serum triglyceride and total cholesterol was done using commercial kits (Pointe Scientific.Inc.USA.) And on day 14 night all animals will be kept for fasting for 12-16 hours. On day 15, after 1 hour of dose administration fasted blood samples will be collected from animals for determination of high density lipoprotein (HDL), and low density lipoprotein (LDL) in serum. The animals will then be euthanized by carbon-dioxide asphyxia (and cervical dislocation, if necessary) and heart, kidney and liver will be resected and weighed.
(§1) Percentage reduction in triglycerides/total cholesterol were calculated according to the formula:
Percentage reduction(%)=(TT−TC)/TC*100
TC=Test day control group TT=Test day treated group.

The next assay deals with T1, hPPAR α (Homo sapiens, UniProt Q07869).
T1 sequence (Q07869 1-468): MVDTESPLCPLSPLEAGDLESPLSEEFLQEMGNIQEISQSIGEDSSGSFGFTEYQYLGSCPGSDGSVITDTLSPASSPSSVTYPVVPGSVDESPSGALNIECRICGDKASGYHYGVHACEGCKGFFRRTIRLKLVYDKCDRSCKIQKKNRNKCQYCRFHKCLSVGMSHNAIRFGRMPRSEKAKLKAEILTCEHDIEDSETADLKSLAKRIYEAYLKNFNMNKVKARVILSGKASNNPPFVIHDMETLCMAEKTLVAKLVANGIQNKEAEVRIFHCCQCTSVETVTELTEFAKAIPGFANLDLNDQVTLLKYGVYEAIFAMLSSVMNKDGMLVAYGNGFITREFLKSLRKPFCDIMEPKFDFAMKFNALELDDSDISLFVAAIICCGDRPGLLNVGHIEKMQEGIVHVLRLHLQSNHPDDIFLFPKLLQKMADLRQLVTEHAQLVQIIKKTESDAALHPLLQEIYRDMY
As to the kind of experiment: In vitro hPPAR alpha activity (in-house protocol). It is filed as cell-based. Conditions: read-out: EC50 (PPAR alpha). The method, then:
(§2) In vitro hPPAR α & hPPARγ activities were determined as per in-house protocols and the results of representative compounds are provided below as a proof of the efficacies of the novel class of compounds disclosed above.

The target of another assay is T2, hPPARγ (Homo sapiens, UniProt P37231).
T2 sequence (P37231 1-505): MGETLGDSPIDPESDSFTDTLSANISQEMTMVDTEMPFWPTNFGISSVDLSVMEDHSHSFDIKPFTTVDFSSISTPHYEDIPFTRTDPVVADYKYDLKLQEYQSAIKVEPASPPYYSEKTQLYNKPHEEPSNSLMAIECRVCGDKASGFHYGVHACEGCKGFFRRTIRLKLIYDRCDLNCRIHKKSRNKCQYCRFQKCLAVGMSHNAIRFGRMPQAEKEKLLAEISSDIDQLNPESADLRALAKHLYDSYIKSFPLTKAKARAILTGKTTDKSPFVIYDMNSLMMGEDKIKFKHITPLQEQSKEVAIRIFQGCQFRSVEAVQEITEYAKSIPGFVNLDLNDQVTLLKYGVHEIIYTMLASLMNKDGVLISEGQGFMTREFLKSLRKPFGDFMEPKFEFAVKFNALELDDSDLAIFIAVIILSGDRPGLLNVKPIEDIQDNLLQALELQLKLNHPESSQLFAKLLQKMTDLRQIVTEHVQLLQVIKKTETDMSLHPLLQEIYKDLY
As to the kind of experiment: In vitro hPPAR gamma activity (in-house protocol). Type of assay: cell-based. Conditions: read-out: EC50 (PPAR gamma). The method, then:
as §2

Another assay relates to Swiss albino mice. In words: Serum triglyceride lowering activity in Swiss albino mice. It is filed as in vivo. To be noted: male Swiss albino mice, 10 mg/kg/day orally for 6 days, serum 1 hour after dose on 6th day, fed state. The method, then: i) Serum Triglyceride and Total Cholesterol Lowering Activity in Swiss Albino Mice:
Male Swiss albino mice (SAM) were bred in Zydus animal house. All these animals were maintained under 12 hour light and dark cycle at 25±1° C. Animals were given standard laboratory chow (NIN, Hyderabad, India) and water ad libitum. SAM of 20-30 g body weight range was used. The protocol approved by Institutional Animal Ethics Committee is being used.
The test compounds were administered orally to Swiss albino mice at 0.001 to 50 mg/kg/day dose for 6 days. The compound was administered after suspending it in 0.25% CMC or dissolving it in water, when compound is water-soluble. Control mice were treated with vehicle (0.25% of Carboxymethyl cellulose; dose 10 ml/kg).
The blood samples were collected on 0th day and in fed state 1 hour after drug administration on 6th day of the treatment. The blood was collected in non heparinised capillary and the serum was analyzed for triglyceride and total cholesterol (Wieland, O. Methods of Enzymatic analysis. Bergermeyer, H., O., Ed., 1963. 211-214; Trinder, P. Ann. Clin. Biochem. 1969. 6: 24-27). Measurement of serum triglyceride and total cholesterol was done using commercial kits (Zydus-Cadila, Pathline, Ahmedabad, India).
as §1
[formula] • OC=Zero day control group value OT=Zero day treated group value • TC=Test day control group TT=Test day treated group

Usually EC50 stands for the concentration at which the effect is half-maximal.

For `CC1(C(=O)O)OCC(c2ccc(OCCc3ccc(OS(C)(=O)=O)cc3)cc2)CO1` (stereo not drawn) [Example 96, 5-cis-{4-[2-(4-Methanesulfonyloxy-phenyl)-ethoxy]-phenyl}-2-methyl-[1,3]dioxane-2-carboxylic acid], the “% Triglyceride lowering” value in assay [1] was found to be 41%.
As for `Cn1c(COc2ccc(CC3COC(C)(C(=O)O)OC3)cc2)nc2ccccc2c1=O` (stereo not drawn) [Example 66, 2-Methyl-5-[4-(3-methyl-4-oxo-3,4-dihydro-quinazolin-2-ylmethoxy)-benzyl]-[1,3]dioxane-2-carboxylic acid], the EC50 on hPPAR α was determined as 72 nM; at hPPARγ it was 15 nM. In addition, the “% Triglyceride lowering” value in the assay with Swiss albino mice turned out to be 40%.
On to `Cc1oc(-c2ccccc2)nc1CCOc1ccc(CC2COC(C)(C(=O)O)OC2)cc1` (stereo not drawn) [Example 61, 2-Methyl-5-{4-[2-(5-methyl-2-phenyl-oxazol-4-yl)-ethoxy]-benzyl}-[1,3]dioxane-2-carboxylic acid], for which the results for the 50% effective concentration (EC50) on hPPAR α and on hPPARγ were 1090 nM and 96 nM, respectively. The “% Triglyceride lowering” value in the assay on Swiss albino mice amounted to 23%; in assay [1], 30%.
With `CC1(C(=O)O)OCC(c2ccc(OCCOc3ccc(Oc4ccccc4)cc3)cc2)CO1` (stereo not drawn) [Example 106, 2-Methyl-5-cis-{4-[2-(4-phenoxy-phenoxy)-ethoxy]-phenyl}-[1,3]dioxane-2-carboxylic acid], the “% Triglyceride lowering” value in assay [1] stood at 50%.
On to `CC1(C(=O)O)OCC(Cc2ccc(OCCn3ccc4ccccc43)cc2)CO1` (stereo not drawn) [Example 70, 5-cis-[4-(2-Indol-1-yl-ethoxy)-benzyl]-2-methyl-[1,3]dioxane-1-carboxylic acid], for which the EC50 on hPPAR α is 600 nM; on hPPARγ, 19.8 nM.
As to `Cc1ccc(-c2nc(CCOc3ccc(C4COC(C)(C(=O)O)OC4)cc3)c(C)o2)cc1` (stereo not drawn) [Example 100, 2-Methyl-5-trans-{4-[2-(5-methyl-2-p-tolyl-oxazol-4-yl)-ethoxy]-phenyl}-[1,3]dioxane-2-carboxylic acid], the “% Triglyceride lowering” value with Swiss albino mice came to 44%.
